# Values quoted from earlier work as cited in patent publication US6339092B1, “Metalloprotease inhibitors” (Adir et Compagnie, priority 1999, dated 2002).
# Tested on: ovarian cancers
# Conditions: Becket el al., DDT 1996; cited from earlier work
smiles,measurement,value
CNC(=O)[C@H](Cc1ccccc1)NC(=O)[C@H](CC(C)C)[C@H](CSc1cccs1)C(=O)NO [BB94],anti-tumour activity in clinical use,active against ovarian cancers
